From PubChem BioAssay (NCI)
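Grown in 96-well plates, cells were treated for 48 hours with each compound at five concentrations. Insufficient inhibition: endpoint recorded as highest concentration tested. The concentration for 50% growth inhibition is given as GI50. At the TGI there is no net growth.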

Legend:
Experiment in all cases: inhibition of tumour cell growth, NCI panel, 48 h
HL-60(TB) leukemia = test system: HL-60(TB) leukemia
LOX IMVI melanoma = test system: LOX IMVI melanoma
RXF 393 renal = test system: RXF 393 renal
EKVX NSCLC = test system: EKVX NSCLC
SK-OV-3 ovarian = test system: SK-OV-3 ovarian
A549 NSCLC = test system: A549 NSCLC
HT29 colon = test system: HT29 colon
RPMI-8226 leukemia = test system: RPMI-8226 leukemia
NCI-H460 lung = test system: NCI-H460 lung
CAKI-1 renal = test system: CAKI-1 renal
MDA-MB-468 breast = test system: MDA-MB-468 breast
UO-31 renal = test system: UO-31 renal
U251 CNS = test system: U251 CNS
A498 renal = test system: A498 renal
OVCAR-4 ovarian = test system: OVCAR-4 ovarian
MALME-3M melanoma = test system: MALME-3M melanoma
UACC-257 melanoma = test system: UACC-257 melanoma
MCF7 breast = test system: MCF7 breast
SK-MEL-5 melanoma = test system: SK-MEL-5 melanoma
SR leukemia = test system: SR leukemia
SNB-75 CNS = test system: SNB-75 CNS
M14 melanoma = test system: M14 melanoma
SK-MEL-2 melanoma = test system: SK-MEL-2 melanoma
SK-MEL-28 melanoma = test system: SK-MEL-28 melanoma
ACHN renal = test system: ACHN renal
NCI-H522 lung = test system: NCI-H522 lung
MOLT-4 leukemia = test system: MOLT-4 leukemia
HCC-2998 colon = test system: HCC-2998 colon
MDA-MB-435 = test system: MDA-MB-435
OVCAR-8 ovarian = test system: OVCAR-8 ovarian
SW-620 colon = test system: SW-620 colon
K-562 leukemia = test system: K-562 leukemia
MDA-MB-231 breast = test system: MDA-MB-231 breast
786-0 renal = test system: 786-0 renal
HOP-62 NSCLC = test system: HOP-62 NSCLC
T-47D breast = test system: T-47D breast
HCT-15 colon = test system: HCT-15 colon
HCT-116 colon = test system: HCT-116 colon
KM12 colon = test system: KM12 colon
OVCAR-3 ovarian = test system: OVCAR-3 ovarian
NCI-H226 lung = test system: NCI-H226 lung
SF-539 CNS = test system: SF-539 CNS
SNB-19 CNS = test system: SNB-19 CNS
DU-145 prostate = test system: DU-145 prostate
SF-295 CNS = test system: SF-295 CNS
IGROV1 ovarian = test system: IGROV1 ovarian
NCI/ADR-RES ovarian = test system: NCI/ADR-RES ovarian
CCRF-CEM leukemia = test system: CCRF-CEM leukemia
HS 578T breast = test system: HS 578T breast
UACC-62 melanoma = test system: UACC-62 melanoma
HOP-92 NSCLC = test system: HOP-92 NSCLC
SN12C renal = test system: SN12C renal
SF-268 CNS = test system: SF-268 CNS
PC-3 prostate = test system: PC-3 prostate
NCI-H23 lung = test system: NCI-H23 lung
COLO 205 colon = test system: COLO 205 colon
BT-549 breast = test system: BT-549 breast
OVCAR-5 ovarian = test system: OVCAR-5 ovarian
TK-10 renal = test system: TK-10 renal

## CS(=O)(=O)Nc1cc(-c2ccc3ncnc(N4CCc5cc(F)c(Cl)cc54)c3c2)cnc1Cl
HL-60(TB) leukemia
  GI50: 484 nM
  TGI: 15100 nM
LOX IMVI melanoma
  GI50: 1050 nM
  TGI: 4090 nM
RXF 393 renal
  GI50: 577 nM
  TGI: 3170 nM
EKVX NSCLC
  GI50: 559 nM
  TGI: 3630 nM
SK-OV-3 ovarian
  GI50: 444 nM
  TGI: 2840 nM
A549 NSCLC
  GI50: 1640 nM
  TGI: 8670 nM
HT29 colon
  GI50: 1480 nM
  TGI: 16800 nM
RPMI-8226 leukemia
  GI50: 1840 nM
  TGI: > 100000 nM
NCI-H460 lung
  GI50: 922 nM
  TGI: 13100 nM
CAKI-1 renal
  GI50: 748 nM
  TGI: 7320 nM
MDA-MB-468 breast
  GI50: 211 nM
  TGI: 1380 nM
UO-31 renal
  GI50: 252 nM
  TGI: 4050 nM
U251 CNS
  GI50: 2360 nM
  TGI: 17500 nM
A498 renal
  GI50: 640 nM
  TGI: 3540 nM
OVCAR-4 ovarian
  GI50: 2350 nM
  TGI: 21100 nM
MALME-3M melanoma
  GI50: 174 nM
  TGI: 1550 nM
UACC-257 melanoma
  GI50: 1390 nM
  TGI: 11000 nM
MCF7 breast
  GI50: 255 nM
  TGI: 11600 nM
SK-MEL-5 melanoma
  GI50: 850 nM
  TGI: 2610 nM
SR leukemia
  GI50: 1520 nM
  TGI: 12900 nM
SNB-75 CNS
  GI50: 254 nM
  TGI: 3000 nM
M14 melanoma
  GI50: 1480 nM
  TGI: 14700 nM
SK-MEL-2 melanoma
  GI50: 1730 nM
  TGI: 5800 nM
SK-MEL-28 melanoma
  GI50: 1320 nM
  TGI: 13400 nM
ACHN renal
  GI50: 1660 nM
  TGI: > 100000 nM
NCI-H522 lung
  GI50: 1620 nM
  TGI: 14300 nM
MOLT-4 leukemia
  GI50: 1060 nM
  TGI: 5000 nM
HCC-2998 colon
  GI50: 1240 nM
  TGI: 8360 nM
MDA-MB-435
  GI50: 1720 nM
  TGI: 13000 nM
OVCAR-8 ovarian
  GI50: 1870 nM
  TGI: 20500 nM
SW-620 colon
  GI50: 2510 nM
  TGI: 17400 nM
K-562 leukemia
  GI50: 5370 nM
  TGI: 68800 nM
MDA-MB-231 breast
  GI50: 1510 nM
  TGI: 4290 nM
786-0 renal
  GI50: 1640 nM
  TGI: 27000 nM
HOP-62 NSCLC
  GI50: 704 nM
  TGI: 7360 nM
T-47D breast
  GI50: 141 nM
  TGI: 963 nM
HCT-15 colon
  GI50: 1000 nM
  TGI: 11400 nM
HCT-116 colon
  GI50: 3490 nM
  TGI: 17400 nM
KM12 colon
  GI50: 3020 nM
  TGI: 18500 nM
OVCAR-3 ovarian
  GI50: 830 nM
  TGI: 4560 nM
NCI-H226 lung
  GI50: 672 nM
  TGI: 7430 nM
SF-539 CNS
  GI50: 1560 nM
  TGI: 6730 nM
SNB-19 CNS
  GI50: 1640 nM
  TGI: 13400 nM
DU-145 prostate
  GI50: 1670 nM
  TGI: 19500 nM
SF-295 CNS
  GI50: 1060 nM
  TGI: 5280 nM
IGROV1 ovarian
  GI50: 194 nM
  TGI: 979 nM
NCI/ADR-RES ovarian
  GI50: 1950 nM
  TGI: 15300 nM
CCRF-CEM leukemia
  GI50: 1840 nM
  TGI: > 100000 nM
HS 578T breast
  GI50: 166 nM
  TGI: 1130 nM
UACC-62 melanoma
  GI50: 382 nM
  TGI: 2570 nM
HOP-92 NSCLC
  GI50: 595 nM
  TGI: 6680 nM
SN12C renal
  GI50: 1680 nM
  TGI: 36500 nM
SF-268 CNS
  GI50: 1650 nM
  TGI: 47900 nM
PC-3 prostate
  GI50: 1030 nM
  TGI: 21000 nM
NCI-H23 lung
  GI50: 1630 nM
  TGI: 9940 nM
COLO 205 colon
  GI50: 1610 nM
  TGI: 9610 nM
BT-549 breast
  GI50: 1480 nM
  TGI: 5110 nM
OVCAR-5 ovarian
  GI50: 1870 nM
  TGI: 23500 nM
TK-10 renal
  GI50: 644 nM
  TGI: 9620 nM
